Assay results: ChEMBL document CHEMBL1129014, “Crystal receptor models in medicinal chemistry: Application to the generation of highly potent potassium channel openers” (Bioorg Med Chem Lett, 1996)

Organism: Cavia porcellus
Experiment: Inhibitory activity against potassium (15 mM) induced contractions of the guinea pig detrusor smooth muscle.
Type: functional

IC50 [µM]	SMILES
1	C[C@](O)(C(=O)Nc1ccc(S(=O)(=O)c2ccccc2)cc1)C(F)(F)F
0.5	C[C@](O)(C(=O)Nc1ccc([N+](=O)[O-])cc1)C(F)(F)F
0.28	C[C@@]1(C(F)(F)F)CN(c2cccc[n+]2[O-])c2cc(S(=O)(=O)c3ccccc3)ccc2O1
0.68	C[C@]1(C(F)(F)F)CN(c2cccc[n+]2[O-])c2cc(S(=O)(=O)c3ccccc3)ccc2O1
0.007	O=[N+]([O-])c1ccc2c(c1)N(c1cccc[n+]1[O-])CC(C(F)F)(C(F)F)O2
0.54	CC1(C(F)(F)F)CN(c2cccc[n+]2[O-])c2cc(S(=O)(=O)c3ccccc3)ccc2O1 (stereo not drawn)
4.1	CC1(C)CN(c2cccc[n+]2[O-])c2cc(S(=O)(=O)c3ccccc3)ccc2O1
0.6	CC1(C)Oc2ccc(C#N)cc2[C@@H](N2CCCC2=O)[C@@H]1O [CROMAKALIM]
